CC(=O)Nc1ccccc1[N+](=O)[O-]
solubility (mole fraction)
Settings	278.15 K	283.15 K	288.15 K	293.15 K	298.15 K	303.15 K	308.15 K	313.15 K	318.15 K	323.15 K
in 1,4-dioxane	–	–	0.13	0.147	0.165	0.186	0.211	0.244	0.284	0.343
in DMF	0.167	0.178	0.192	0.213	0.238	0.266	0.295	0.327	0.373	0.426
in NMP	0.195	0.215	0.239	0.268	0.299	0.33	0.367	0.404	0.445	0.491
in acetonitrile	0.0156	0.0176	0.021	0.0248	0.0302	0.0387	0.0511	0.0675	0.0932	0.124
in cyclohexane	–	0.00106	0.00133	0.00167	0.00216	0.00275	0.00357	0.00474	0.00634	0.0084
in ethanol	0.0143	0.0163	0.0188	0.0226	0.0276	0.0323	0.0382	0.0447	0.0516	0.0615
in ethyl acetate	0.0478	0.0545	0.0662	0.079	0.094	0.112	0.135	0.163	0.21	0.263
in ethylene glycol	0.00464	0.00517	0.00599	0.00714	0.00855	0.0103	0.0126	0.0155	0.0187	0.0224
in isobutanol	0.00896	0.00984	0.0115	0.0134	0.0162	0.0202	0.0246	0.0302	0.0374	0.0483
in isopropanol	0.00743	0.00851	0.00991	0.0121	0.0151	0.0184	0.0227	0.0279	0.036	0.0468
in methanol	0.0181	0.021	0.0248	0.0289	0.0331	0.0394	0.0463	0.0558	0.0703	0.0926
in n-butanol	0.00975	0.011	0.0127	0.016	0.0196	0.0232	0.028	0.0341	0.0422	0.0529
in n-heptanol	0.00627	0.00721	0.00829	0.0105	0.0129	0.0163	0.0209	0.0261	0.0337	0.042
in n-propanol	0.0129	0.0144	0.0167	0.0204	0.0245	0.0285	0.0331	0.0393	0.0468	0.0578
in water	9.9e-05	0.000128	0.00016	0.000201	0.000249	0.00032	0.000412	0.000521	0.000662	0.000824

Reference: BigSolDB 2.1
